Experimental data: ChEMBL document CHEMBL1135703, “Synthesis and biological activity of a novel class of small molecular weight peptidomimetic competitive inhibitors of protein tyrosine phosphatase 1B” (2002)

Key:
[1] = molecular target: T1, Tyrosine-protein phosphatase non-receptor type 11 (Mus musculus) (UniProt P35235); test: (§1) Percent inhibition of Tyrosine phosphatase SHP2 SH2 domain containing PTP involved in insulin uM; parameters: concentration or dose not given beside the values; details: concentration not given here
T1 sequence (whole entry): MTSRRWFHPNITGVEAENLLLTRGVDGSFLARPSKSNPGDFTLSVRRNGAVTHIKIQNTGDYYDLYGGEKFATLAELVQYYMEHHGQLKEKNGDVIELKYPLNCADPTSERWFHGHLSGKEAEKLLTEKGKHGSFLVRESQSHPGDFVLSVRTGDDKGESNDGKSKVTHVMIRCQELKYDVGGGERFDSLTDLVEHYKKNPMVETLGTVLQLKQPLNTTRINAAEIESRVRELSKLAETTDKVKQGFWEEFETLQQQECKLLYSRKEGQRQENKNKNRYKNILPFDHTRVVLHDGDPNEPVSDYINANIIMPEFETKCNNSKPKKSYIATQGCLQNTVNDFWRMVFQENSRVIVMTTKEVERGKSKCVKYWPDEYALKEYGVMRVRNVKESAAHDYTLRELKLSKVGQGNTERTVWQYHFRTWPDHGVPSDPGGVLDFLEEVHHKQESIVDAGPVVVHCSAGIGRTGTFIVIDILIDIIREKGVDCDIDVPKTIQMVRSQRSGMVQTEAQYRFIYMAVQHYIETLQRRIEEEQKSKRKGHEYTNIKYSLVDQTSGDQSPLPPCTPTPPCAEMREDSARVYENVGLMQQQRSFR

[2] = molecular target: T2, Tyrosine-protein phosphatase non-receptor type 1 (Homo sapiens) (UniProt P18031); test: Percent inhibition of Protein Tyrosine Phosphatase 1B (PTP 1B) assayed at 100 uM
T2 sequence (whole entry): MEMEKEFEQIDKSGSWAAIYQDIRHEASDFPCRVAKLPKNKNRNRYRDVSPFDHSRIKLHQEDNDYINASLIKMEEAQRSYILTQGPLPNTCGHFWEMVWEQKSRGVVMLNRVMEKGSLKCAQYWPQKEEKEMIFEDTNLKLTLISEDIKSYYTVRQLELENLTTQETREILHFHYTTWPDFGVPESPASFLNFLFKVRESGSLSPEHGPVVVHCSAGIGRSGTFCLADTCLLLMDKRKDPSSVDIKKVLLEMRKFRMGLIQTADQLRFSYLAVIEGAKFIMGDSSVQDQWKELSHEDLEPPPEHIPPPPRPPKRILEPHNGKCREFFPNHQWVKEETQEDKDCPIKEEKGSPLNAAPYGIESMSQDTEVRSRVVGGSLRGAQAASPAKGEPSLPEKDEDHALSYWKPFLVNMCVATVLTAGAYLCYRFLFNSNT

[3] = molecular target: Receptor-type tyrosine-protein phosphatase F (Homo sapiens) (UniProt P10586); test: Percent inhibition of Protein-tyrosine phosphatase Lar assayed at 100 uM
Sequence of Receptor-type tyrosine-protein phosphatase F (Homo sapiens) (P10586 whole entry): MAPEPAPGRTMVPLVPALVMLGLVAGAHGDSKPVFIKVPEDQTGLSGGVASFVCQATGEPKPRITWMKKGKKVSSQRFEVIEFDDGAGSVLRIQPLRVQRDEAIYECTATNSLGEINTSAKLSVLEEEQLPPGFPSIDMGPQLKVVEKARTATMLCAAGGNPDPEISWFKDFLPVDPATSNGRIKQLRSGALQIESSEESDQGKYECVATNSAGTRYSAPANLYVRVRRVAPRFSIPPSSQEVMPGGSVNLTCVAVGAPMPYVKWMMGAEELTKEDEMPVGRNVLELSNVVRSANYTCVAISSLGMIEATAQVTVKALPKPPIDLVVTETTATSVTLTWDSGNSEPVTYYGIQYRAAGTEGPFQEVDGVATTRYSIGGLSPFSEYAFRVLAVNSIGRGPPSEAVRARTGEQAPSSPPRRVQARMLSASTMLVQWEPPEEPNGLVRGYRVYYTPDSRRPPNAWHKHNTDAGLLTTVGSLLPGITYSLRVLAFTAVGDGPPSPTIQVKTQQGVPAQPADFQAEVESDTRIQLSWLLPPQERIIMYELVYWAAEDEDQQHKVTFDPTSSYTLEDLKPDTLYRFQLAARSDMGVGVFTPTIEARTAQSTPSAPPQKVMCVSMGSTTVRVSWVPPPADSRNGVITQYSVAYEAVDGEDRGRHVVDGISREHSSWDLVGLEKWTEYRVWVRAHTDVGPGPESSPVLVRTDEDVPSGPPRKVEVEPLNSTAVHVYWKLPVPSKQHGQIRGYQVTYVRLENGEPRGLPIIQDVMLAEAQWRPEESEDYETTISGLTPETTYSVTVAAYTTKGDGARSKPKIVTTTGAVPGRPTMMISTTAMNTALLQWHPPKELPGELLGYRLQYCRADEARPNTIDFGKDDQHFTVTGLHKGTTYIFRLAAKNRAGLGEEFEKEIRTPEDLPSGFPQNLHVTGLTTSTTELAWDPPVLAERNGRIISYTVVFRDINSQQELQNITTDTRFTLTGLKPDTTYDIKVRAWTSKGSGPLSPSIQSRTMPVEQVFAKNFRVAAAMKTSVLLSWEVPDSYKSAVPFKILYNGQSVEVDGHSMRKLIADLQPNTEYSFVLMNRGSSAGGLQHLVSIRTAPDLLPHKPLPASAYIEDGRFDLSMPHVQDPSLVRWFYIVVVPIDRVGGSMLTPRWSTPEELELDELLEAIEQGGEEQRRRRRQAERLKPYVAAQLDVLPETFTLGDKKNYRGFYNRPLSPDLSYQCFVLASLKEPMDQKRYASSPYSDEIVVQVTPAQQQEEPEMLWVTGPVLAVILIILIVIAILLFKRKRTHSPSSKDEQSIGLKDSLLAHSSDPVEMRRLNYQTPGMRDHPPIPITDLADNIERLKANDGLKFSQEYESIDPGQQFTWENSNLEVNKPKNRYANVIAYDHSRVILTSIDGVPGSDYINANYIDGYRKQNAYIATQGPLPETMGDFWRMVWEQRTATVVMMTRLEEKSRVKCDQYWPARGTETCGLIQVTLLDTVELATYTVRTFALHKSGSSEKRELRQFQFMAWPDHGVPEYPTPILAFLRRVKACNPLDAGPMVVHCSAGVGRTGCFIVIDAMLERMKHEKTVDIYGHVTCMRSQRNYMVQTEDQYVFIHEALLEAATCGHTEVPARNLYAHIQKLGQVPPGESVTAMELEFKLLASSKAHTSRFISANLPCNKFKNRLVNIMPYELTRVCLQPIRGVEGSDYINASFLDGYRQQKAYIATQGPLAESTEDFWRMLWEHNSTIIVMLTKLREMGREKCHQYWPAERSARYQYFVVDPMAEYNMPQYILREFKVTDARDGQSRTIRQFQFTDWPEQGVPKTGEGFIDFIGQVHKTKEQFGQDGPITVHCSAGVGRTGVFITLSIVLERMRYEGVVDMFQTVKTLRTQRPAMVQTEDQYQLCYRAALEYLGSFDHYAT

[4] = molecular target: T3, Tyrosine-protein phosphatase non-receptor type 1 (Rattus norvegicus) (UniProt P20417); test: Percent inhibition of Protein-tyrosine phosphatase 1 (PTP) assayed at 100 uM
T3 sequence (whole entry): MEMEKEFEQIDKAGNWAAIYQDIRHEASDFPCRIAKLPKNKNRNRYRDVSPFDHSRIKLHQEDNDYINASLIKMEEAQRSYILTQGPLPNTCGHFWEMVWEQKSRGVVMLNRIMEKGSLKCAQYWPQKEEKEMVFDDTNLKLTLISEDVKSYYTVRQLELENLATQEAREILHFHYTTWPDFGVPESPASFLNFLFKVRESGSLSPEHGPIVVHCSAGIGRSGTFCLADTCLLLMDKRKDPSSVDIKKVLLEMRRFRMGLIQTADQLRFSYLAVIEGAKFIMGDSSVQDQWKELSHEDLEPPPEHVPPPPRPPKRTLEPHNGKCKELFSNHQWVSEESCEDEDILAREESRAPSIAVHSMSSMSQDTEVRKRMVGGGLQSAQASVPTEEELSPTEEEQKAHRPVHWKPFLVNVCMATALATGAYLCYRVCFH

[5] = molecular target: T1, Tyrosine-protein phosphatase non-receptor type 11 (Mus musculus); test: as §1; details: concentration not given here
[6] = Uptake of 2-deoxyglucose into L-6 myocytes, measurements were taken in presence of insulin (+ins), assayed at 100 uM; type: functional
[7] = Uptake of 2-deoxyglucose into L-6 myocytes, measurements were taken in absence of insulin (basal), assayed at 100 uM; type: functional

inhibition [1] | inhibition [2] | inhibition [3] | inhibition [4] | inhibition [5] | Structure (SMILES) | 2-deoxyglucose uptake, % of control [6] | 2-deoxyglucose uptake, % of control [7]
71% | 98% | 26% | 98% |  | CCCCCNC(=O)[C@H](Cc1ccc(OC(C(=O)O)C(=O)O)cc1)NC(=O)[C@H](Cc1ccc(C(=O)c2ccccc2)cc1)NC(=O)CCC(=O)O |  | 
 | 80% | 2% | 76% | 8% | CCCCCNC(=O)C(Cc1ccc(OC(C(=O)O)C(=O)O)cc1)NC(=O)CCC(=O)O (configuration not stated) |  | 
25% | 95% | 7% | 96% |  | CCCCCNC(=O)C(Cc1ccc(OC(C(=O)O)C(=O)O)cc1)NC(=O)[C@H](CC(=O)O)NC(=O)CCC(=O)O (some centres not stated) |  | 
0% | 19% | 0% |  |  | CCCCCNC(=O)[C@H](Cc1ccc(OCC(=O)O)c(C(=O)O)c1)NC(=O)[C@@H](Cc1ccccc1)NC(=O)OC(C)(C)C | 89% | 107%
5% | 87% | 0% | 93% |  | CCCCCNC(=O)C(Cc1ccc(OCC(=O)O)c(C(=O)O)c1)NC(=O)CCC(=O)O (configuration not stated) |  | 
10% | 91% | 27% | 88% |  | CCCCCNC(=O)C(Cc1ccc(OC(C(=O)O)C(=O)O)cc1)NC(=O)[C@H](Cc1ccccc1)NC(=O)OC(C)(C)C (some centres not stated) |  | 
10% | 93% | 0% |  |  | CCCCCNC(=O)C(Cc1ccc(OCC(=O)O)c(C(=O)O)c1)NC(=O)[C@H](Cc1ccccc1)NC(=O)CCC(=O)O (some centres not stated) | 83% | 105%
3% | 83% | 0% | 76% |  | CCCCCNC(=O)C(Cc1ccc(OC(C(=O)O)C(=O)O)cc1)NC(=O)[C@H](C)NC(=O)OC(C)(C)C (some centres not stated) |  | 
0% | 0% | 3% |  |  | CCCCCNC(=O)C(Cc1ccc(OCC(=O)OC)c(C(=O)OC)c1)NC(=O)[C@H](Cc1ccccc1)NC(=O)CCC(=O)OC (some centres not stated) | 77% | 225%
44% | 99% | 23% | 97% |  | CCCCCNC(=O)C(Cc1ccc(OC(C(=O)O)C(=O)O)cc1)NC(=O)[C@H](Cc1ccccc1)NC(=O)CCC(=O)O (some centres not stated) |  | 
1% | 0% | 0% |  |  | CCCCCNC(=O)C(Cc1ccc(OCC(=O)OC)c(C(=O)OC)c1)NC(=O)[C@H](Cc1ccccc1)NC(=O)OC(C)(C)C (some centres not stated) | 72% | 114%
2% | 78% | 0% | 84% |  | CCCCCNC(=O)C(Cc1ccc(OCC(=O)O)c(C(=O)O)c1)NC(=O)[C@H](Cc1ccccc1)NC(=O)OC(C)(C)C (some centres not stated) | 108% | 81%
16% |  | 6% | 67% |  | CCCCCNC(=O)C(Cc1ccc(OC(C(=O)O)C(=O)O)cc1)NC(=O)CC(C)(C)CC(=O)O (configuration not stated) |  | 
2% | 5% | 0% | 16% |  | CCCCCNC(=O)C(Cc1ccc(OCC(N)=O)c(C(=O)O)c1)NC(=O)CCC(=O)O (configuration not stated) |  | 
 | 51% | 5% | 80% | 6% | CCCCCNC(=O)C(Cc1ccc(OS(=O)(=O)O)cc1)NC(=O)CCC(=O)O (configuration not stated) |  | 
33% |  | 22% | 98% |  | CCCCCNC(=O)C(Cc1ccc(OC(C(=O)O)C(=O)O)cc1)NC(=O)[C@H](Cc1ccc(OC)cc1)NC(=O)CCC(=O)O (some centres not stated) |  | 
19% |  | 10% | 63% |  | CCCCCNC(=O)C(Cc1ccc(OC(C(=O)O)C(=O)O)cc1)NC(=O)c1ccccc1C(=O)O (configuration not stated) |  | 
9% |  | 4% | 51% |  | CCCCCCCCCCNC(=O)C(Cc1ccc(OC(C(=O)O)C(=O)O)cc1)NC(=O)CCC(=O)O (configuration not stated) |  | 
33% |  | 28% | 98% |  | CCCCCNC(=O)C(Cc1ccc(OC(C(=O)O)C(=O)O)cc1)NC(=O)[C@H](Cc1ccc(OCc2ccccc2)cc1)NC(=O)CCC(=O)O (some centres not stated) |  | 
17% |  | 5% | 63% |  | NS(=O)(=O)c1ccc(CCNC(=O)C(Cc2ccc(OC(C(=O)O)C(=O)O)cc2)NC(=O)CCC(=O)O)cc1 (configuration not stated) |  | 
3% |  | 3% | 34% |  | CCCCCNC(=O)C(Cc1ccc(CC(C(=O)O)C(=O)O)cc1)NC(=O)CCC(=O)O (configuration not stated) |  | 
12% |  | 10% | 61% |  | O=C(O)CCC(=O)NC(Cc1ccc(OC(C(=O)O)C(=O)O)cc1)C(=O)NCc1cccc2ccccc12 (configuration not stated) |  | 
58% |  | 2% | 56% |  | O=C(O)CCC(=O)NC(Cc1ccc(OC(C(=O)O)C(=O)O)cc1)C(=O)NCc1ccc(C(=O)O)cc1 (configuration not stated) |  | 

Structure (SMILES) | inhibition [1] | inhibition [2] | inhibition [3] | inhibition [4] | inhibition [5] | 2-deoxyglucose uptake, % of control [6] | 2-deoxyglucose uptake, % of control [7]
CCCCCNC(=O)C(Cc1ccc(O)c(C(=O)O)c1)NC(=O)CCC(=O)O (configuration not stated) | 3% |  | 0% | 0% |  |  | 
